In article PMC9587021, “Construction of a bioluminescence-based assay for bitter taste receptors (TAS2Rs)” (Scientific Reports, 2022):
Read-outs that look alike come from different tables or passages of the source.

What was measured:
Assay in all cases: cell-based
TAS2R5 = target: T1, TAS2R5 (Homo sapiens, UniProt Q9NYW4); design: bioluminescence intracellular calcium release assay, mt-clytin II with coelenterazine, Gα16-gust44 co-expressed; conditions: 293AD cells
T1 sequence (Q9NYW4 1-299): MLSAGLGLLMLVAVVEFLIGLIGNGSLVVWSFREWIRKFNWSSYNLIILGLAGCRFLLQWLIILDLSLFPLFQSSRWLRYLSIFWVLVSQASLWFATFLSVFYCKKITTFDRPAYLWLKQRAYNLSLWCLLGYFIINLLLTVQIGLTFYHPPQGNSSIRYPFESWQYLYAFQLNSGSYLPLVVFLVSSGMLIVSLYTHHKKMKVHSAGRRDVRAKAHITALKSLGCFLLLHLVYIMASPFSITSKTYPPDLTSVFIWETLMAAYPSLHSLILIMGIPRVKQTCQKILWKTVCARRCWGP
Description: (§1) The bioluminescence-based assay was used to characterize the functional properties of various human TAS2Rs. For each TAS2R, one or more of its cognate agonists were tested against either the AD-293 or 293AD cell line, or both. Both cell lines were used because of their stronger adherent properties, which facilitate media changes on the day of the FLIPR assay. However, because both cell lines are generated differently, some disparities in gene expression capacities due to a myriad of factors could be reasonably expected. Consequently, some TAS2Rs may be well expressed in one cell line but not the other, and the ability of each cell line to express a particular TAS2R needs to be empirically evaluated. […] However, deviations between our experimental and published potency values for some ligands (i.e. TAS2R4: stevioside; TAS2R7: Mg^2+, Mn^2+, Zn^2+) were observed, which could be attributed to the use of a different assay format, readout and processing parameters, use of different cell lines with resultant potential differences in TAS2R expression levels, and quality and methodological differences in ligand preparations. Because potency values could be obtained that were consistent with the literature, or close to the reported minimal effective stimulatory concentration upon further testing of other TAS2R4/7 agonists, the deviation in EC50 values could be largely attributed to qualitative differences in the ligands (Supplementary Fig. S3). Calcium responses induced by the tested cognate agonists reflected specific TAS2R stimulation. […] Poor localization of TAS2Rs to the cell surface in heterologous systems was associated with diminished receptor signaling output and functionality. One of the more commonly used strategies to enhance the density of TAS2Rs at the cell surface involves fusing an N-terminal signal sequence of either the SST3, or Rho receptor to the TAS2R[24]. We adopted this approach, specifically co-expressing SST3-TAS2R with Gα16-gust44 chimera and mt-clytin II, to develop and validate a bioluminescence-based TAS2R intracellular calcium release assay. A strength of the bioluminescence-based TAS2R assay is its capacity to generate greater assay spans than that of fluorescence-based assays, which could be largely attributed to the utilization of mt-clytin II as the calcium reporter. Calcium-binding photoproteins in general are useful reporters for studying calcium-mediated signaling processes. […] Its fast calcium binding and dissociation kinetics render it a suitable indicator to report on swift, transient changes in calcium ion concentrations and study rapid receptor-ligand interactions. Mitochondrial targeting of clytin II was crucial to generating higher luminescence intensity than that of cytosol-localized clytin II, as inositol 1,4,5-triphosphate (IP3)-induced calcium release from the ER subsequent to ligand activation is thought to result in the formation of ER-proximal, calcium-rich microdomains that enabled the closely apposed mitochondria to sense a higher initial rise in calcium concentration than would be experienced by the bulk cytosol.

TAS2R39 = target: T2, TAS2R39 (Homo sapiens, UniProt P59534); design: bioluminescence intracellular calcium release assay, mt-clytin II with coelenterazine, Gα16-gust44 co-expressed
T2 sequence (P59534 1-338): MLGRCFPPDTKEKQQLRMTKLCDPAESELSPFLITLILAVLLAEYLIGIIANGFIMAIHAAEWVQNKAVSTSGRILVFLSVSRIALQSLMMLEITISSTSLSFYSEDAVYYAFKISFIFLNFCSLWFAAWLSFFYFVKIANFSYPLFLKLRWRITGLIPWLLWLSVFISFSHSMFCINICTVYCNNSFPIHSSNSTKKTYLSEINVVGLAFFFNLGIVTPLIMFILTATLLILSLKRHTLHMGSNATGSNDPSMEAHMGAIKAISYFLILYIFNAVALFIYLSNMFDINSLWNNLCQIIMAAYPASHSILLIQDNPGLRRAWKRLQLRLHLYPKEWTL
Description: as §1

TAS2R46 [1] = target: T3, TAS2R46 (Homo sapiens, UniProt P59540); design: species or system 293AD; bioluminescence intracellular calcium release assay, mt-clytin II with coelenterazine, Gα16-gust44 co-expressed
T3 sequence (P59540 1-309): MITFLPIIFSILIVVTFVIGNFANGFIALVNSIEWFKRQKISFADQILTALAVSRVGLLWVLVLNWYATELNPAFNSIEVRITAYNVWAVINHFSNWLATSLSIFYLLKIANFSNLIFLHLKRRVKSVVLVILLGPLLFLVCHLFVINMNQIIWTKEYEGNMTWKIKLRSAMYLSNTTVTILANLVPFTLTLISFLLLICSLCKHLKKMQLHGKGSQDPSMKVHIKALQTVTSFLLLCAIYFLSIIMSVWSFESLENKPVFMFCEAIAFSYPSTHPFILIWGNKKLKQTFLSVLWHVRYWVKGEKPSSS
Description: (§2) The bioluminescence-based assay was used to characterize the functional properties of various human TAS2Rs. For each TAS2R, one or more of its cognate agonists were tested against either the AD-293 or 293AD cell line, or both. Both cell lines were used because of their stronger adherent properties, which facilitate media changes on the day of the FLIPR assay. However, because both cell lines are generated differently, some disparities in gene expression capacities due to a myriad of factors could be reasonably expected. Consequently, some TAS2Rs may be well expressed in one cell line but not the other, and the ability of each cell line to express a particular TAS2R needs to be empirically evaluated. […] However, deviations between our experimental and published potency values for some ligands (i.e. TAS2R4: stevioside; TAS2R7: Mg^2+, Mn^2+, Zn^2+) were observed, which could be attributed to the use of a different assay format, readout and processing parameters, use of different cell lines with resultant potential differences in TAS2R expression levels, and quality and methodological differences in ligand preparations. […] A strength of the bioluminescence-based TAS2R assay is its capacity to generate greater assay spans than that of fluorescence-based assays, which could be largely attributed to the utilization of mt-clytin II as the calcium reporter. […]

TAS2R46 [2] = target: T3, TAS2R46; design: species or system AD-293; bioluminescence intracellular calcium release assay, mt-clytin II with coelenterazine, Gα16-gust44 co-expressed
Description: as §2

SMILES: O=C(O[C@@H]1Cc2c(O)cc(O)cc2O[C@@H]1c1cc(O)c(O)c(O)c1)c1cc(O)c(O)c(O)c1 [Epigallocatechin gallate]
- EC50 (TAS2R5): 47 ± 11 µM
- EC50 (TAS2R39; 293AD cells): 141 ± 44 µM
- EC50 (TAS2R39; AD-293 cells): 362 ± 81 µM

SMILES: O=C1C[C@@H]2OCC=C3CN4CC[C@]56c7ccccc7N1[C@H]5[C@H]2[C@H]3C[C@H]46 [Strychnine]
- EC50 (TAS2R46 [1]): 0.309 ± 0.073 µM
- EC50 (TAS2R46 [2]): 1.2 µM
